Assay results reported in patent US7232831B2, “Tetrahydro-β-carboline compounds and use thereof” (MediQuest Therapeutics, Inc., priority 2004, dated 2007).

Tested on: rats
Experiment: Forced Swimming Test (Depression Test Model)
Format: in vivo
Details: delivered orally before swim test, all three doses 0.3, 3 and 30 mg/kg, observed for 6 minutes
Description: Forced Swimming Test (Depression Test Model)—Total immobility time of rats can be assessed during a forced swimming test Porsolt, R. D., Anton, G., Blavet, N., Jalfre, M. Behavioral despair in rats, a new model sensitive to antidepressant treatments. Eur. J Pharmacol. 1978, 47, 379-391. A shortened immobility period reflects anti-depressant-like effects of a test compound. MQT compounds were delivered orally to rats before the swim test.

With `NCCCNCC1CCCN(CC2Cc3c([nH]c4ccccc34)CN2)C1` (centres unmarked) [MQT 2] the “Total immobility time during forced swimming test” value was “reduction in immobility”.
For `NCCCNC(=O)C1CCCN(C(=O)C2Cc3c([nH]c4ccccc34)CN2)C1` (centres unmarked) [MQT 1], the “Total immobility time during forced swimming test” value was “reduction in immobility”.
